In ChEMBL document CHEMBL1122972, “Angiotensin-converting enzyme inhibitors: synthesis and biological activity of acyl tripeptide analogues of enalapril” (J Med Chem, 1985):
Square brackets hold non-standard residues; d marks the D form. Peptide text beside a SMILES is read from it. * marks the point of attachment. Hydrocinnamoyl = O=C(CCc1ccccc1)*; pGlu = O=C1CC[C@@H](C(=O)O)N1; Bz = O=C(c1ccccc1)*

The compounds below were run against Angiotensin-converting enzyme (Homo sapiens, UniProt P12821) (assay: In vitro inhibitory activity against Angiotensin I converting enzyme). Details: read-out: I50.
Chain of Angiotensin-converting enzyme (P12821 whole entry): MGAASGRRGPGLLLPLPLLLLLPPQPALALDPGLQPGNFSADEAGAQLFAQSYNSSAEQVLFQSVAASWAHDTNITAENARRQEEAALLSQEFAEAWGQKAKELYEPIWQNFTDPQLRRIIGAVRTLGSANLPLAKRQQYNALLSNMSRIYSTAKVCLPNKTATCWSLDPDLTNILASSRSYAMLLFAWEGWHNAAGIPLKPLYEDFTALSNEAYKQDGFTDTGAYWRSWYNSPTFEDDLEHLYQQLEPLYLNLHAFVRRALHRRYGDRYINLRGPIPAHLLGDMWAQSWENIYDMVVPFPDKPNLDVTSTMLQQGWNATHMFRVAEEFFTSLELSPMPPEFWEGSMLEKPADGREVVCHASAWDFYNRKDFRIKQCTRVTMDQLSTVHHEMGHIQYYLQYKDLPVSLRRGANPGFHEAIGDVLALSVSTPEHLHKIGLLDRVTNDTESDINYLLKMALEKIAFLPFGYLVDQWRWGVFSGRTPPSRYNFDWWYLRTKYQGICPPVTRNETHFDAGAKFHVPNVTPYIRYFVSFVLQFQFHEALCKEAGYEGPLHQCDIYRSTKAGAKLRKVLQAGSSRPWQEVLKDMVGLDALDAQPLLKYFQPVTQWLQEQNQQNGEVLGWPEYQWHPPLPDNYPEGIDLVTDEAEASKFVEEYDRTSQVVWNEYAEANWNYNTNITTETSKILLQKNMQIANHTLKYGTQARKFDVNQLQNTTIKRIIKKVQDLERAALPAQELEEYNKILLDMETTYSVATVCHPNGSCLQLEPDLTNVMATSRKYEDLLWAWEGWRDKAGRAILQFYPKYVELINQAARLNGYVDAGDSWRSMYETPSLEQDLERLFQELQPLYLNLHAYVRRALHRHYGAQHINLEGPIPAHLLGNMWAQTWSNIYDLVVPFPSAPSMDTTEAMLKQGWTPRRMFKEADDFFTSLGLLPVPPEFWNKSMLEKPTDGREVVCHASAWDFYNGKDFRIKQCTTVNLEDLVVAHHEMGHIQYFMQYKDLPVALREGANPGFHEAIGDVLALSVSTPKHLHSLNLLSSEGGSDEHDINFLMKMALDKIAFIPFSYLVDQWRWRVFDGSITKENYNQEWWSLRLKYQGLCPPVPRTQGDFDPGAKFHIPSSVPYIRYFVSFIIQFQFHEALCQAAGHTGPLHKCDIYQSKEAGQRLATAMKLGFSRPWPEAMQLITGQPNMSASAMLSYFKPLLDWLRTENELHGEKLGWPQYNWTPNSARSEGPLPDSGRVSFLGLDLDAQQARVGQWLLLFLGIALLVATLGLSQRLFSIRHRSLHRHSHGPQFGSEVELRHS
With `C[C@H](N[C@H](C[C@H](Cc1ccccc1)NC(=O)c1ccccc1)C(=O)O)C(=O)N1CCC[C@H]1C(=O)O` the IC50 was 0.0048 µM.
`C[C@H](NC(=O)[C@H](Cc1ccccc1)NC(=O)[C@H](CCCCN)NC(=O)[C@@H]1CCC(=O)N1)C(=O)N1CCC[C@H]1C(=O)O` ([pGlu]KFAP-OH) showed an IC50 of 5 µM.
Compound `C[C@H](N[C@H](C(=O)O)[C@@H]1CCCN1)C(=O)N1CCC[C@H]1C(=O)O` has an IC50 of 0.7 µM.
In the case of `C[C@H](NC(=O)[C@@H](N)Cc1ccccc1)C(=O)N1CCC[C@H]1C(=O)O` (H-Phe-Ala-Pro-OH), the IC50 is reported as 1.4 µM.
For `C[C@H](NC(CNC(=O)c1ccccc1)C(=O)O)C(=O)N1CCC[C@H]1C(=O)O` (some centres undefined), the IC50 was 0.04 µM.
Work on `C[C@H](N[C@@H](C(=O)O)[C@H](Cc1ccccc1)NC(=O)c1ccccc1)C(=O)N1CCC[C@H]1C(=O)O` yielded an IC50 of 1.4 µM.
Compound `CC(=O)N1CCCC1C(NC(C)C(=O)N1CCCC1C(=O)O)C(=O)O` (centres undefined) has an IC50 of 0.0094 µM.
For `C[C@H](NC(=O)CCc1ccccc1)C(=O)N1CCC[C@H]1C(=O)O` (Hydrocinnamoyl-Ala-Pro-OH), the IC50 was 330 µM.
`C[C@H](N[C@@H](CNC(=O)c1ccccc1)C(=O)O)C(=O)N1CCC[C@H]1C(=O)O` showed an IC50 of 0.017 µM.
In the case of `CC(NC(C(=O)O)C1CCCN1C(=O)c1ccccc1)C(=O)N1CCCC1C(=O)O` (centres undefined), the IC50 is reported as 0.0029 µM.
Work on `C[C@H](N[C@H](C(=O)O)[C@H](Cc1ccccc1)NC(=O)c1ccccc1)C(=O)N1CCC[C@H]1C(=O)O` yielded an IC50 of 0.0077 µM.
Compound `C[C@H](N[C@@H](C[C@H](Cc1ccccc1)NC(=O)c1ccccc1)C(=O)O)C(=O)N1CCC[C@H]1C(=O)O` has an IC50 of 0.003 µM.
In the case of `C[C@H](NC(=O)[C@H](Cc1ccccc1)NC(=O)c1ccccc1)C(=O)N1CCC[C@H]1C(=O)O` (Bz-Phe-Ala-Pro-OH), the IC50 is reported as 2.7 µM.
`O=C(CCC(=O)N1CCCC1C(=O)O)CCc1ccccc1` (centres undefined) was tested, and the IC50 was 2600 µM.
